We go through four compounds from US20230226198A1, “Artemisinin Derivatives” (DA ZEN THERANOSTICS, INC., priority 2019, published 2023).

Experiment [1] has as its system Caki-1 cells (human clear cell renal cell carcinoma cells). The experiment in a line: MTT cell viability / IC50 assay, Caki-1. In kind it is cell-based. Here is the method: (§1) Cell culture: In the following examples, unless otherwise specified, all cell lines are purchased from American Type Culture Collection and cultured in American Type Culture Collection (ATCC)-recommended media, with fetal bovine serum (FBS) to a final concentration of 10% and 1× penicillin/streptomycin at 37° C. with 5% CO2 in a cell culture incubator, unless otherwise specified. Unless otherwise specified, culture is 2D. Where culture is 3D, low attachment plates are used, with the same media. C4-2B (ATCC® CRL-3315™, human prostate cancer cells of epithelial morphology) parental cell line and drug-resistant cells derived therefrom) are cultured in RPMI-1640 with 10% FBS. MDVR cells (an Enzalutamide-resistant variety of C4-2B prostate cancer cells formed as described below) are cultured as indicated for the parental C4-2B cells. Caki-1 cells (human clear cell renal cell carcinoma cells) are cultured in ATCC-formulated McCoy's 5a Medium Modified (ATCC Catalog No. 30-2007) with 10% FBS. PC3 cells (ATCC® CRL-1435™, a human prostate cancer cell line of epithelial morphology initiated from a bone metastasis of a grade IV prostatic adenocarcinoma) are cultured in F-12K with 10% FBS. 22RV1 Prostate Cancer (PC) cells (ATCC® CRL-2505™, a human prostate carcinoma cell line of epithelial morphology) are cultured in RPMI-1640 with 10% FBS. DU145 cells (ATCC® HTB-81™, a human cell line derived from a prostate-originating brain metastase, not detectably hormone sensitive, not expressing prostate antigen; forms adenocarcinoma grade II in nude mice) are cultured in ATCC-formulated Eagle's Minimum Essential Medium (EMEM, Catalog No. 30-2003). H446 cells (ATCC® HTB-171™, a human small cell carcinoma SC lung cancer (SCLC) cell line derived from a metastatic site) are cultured in RPMI-1640 with 10% FBS. H358 cells (ATCC® CRL-5807™, a human non-small cell lung cancer (NSCLC) cell line that expresses protein and RNA of SP-A, the major lung surfactant associated protein, and produces tumors in athymic nude mice) are cultured in RPMI-1640 Medium with 10% FBS. BxPC3 cells (ATCC® CRL-1687™, an adenocarcinoma-derived pancreatic cancer cell line that expresses pancreas cancer specific antigen and carcinoembryonic antigen and forms tumors in nude mice) are cultured in RPMI-1640 with 10% FBS.
Example 1: A cell assay is performed exposing cells cultured as described above to various drugs indicated below for 24 hours unless otherwise indicated. Each of the cell lines is treated either with a THAD (e.g. DZ-DHA-ether, MI-148-bis-DHA), or for comparison, with the DHA mono-ester “DZ-DHA”; alternatively/additionally, DZ1 and/or unconjugated DHA may serve as comparants. For each cell line, the IC50 is determined for each drug in concentrations from 0 to 100 μM. […] In the controls (not shown in the figures), the cells are exposed to DMSO (vehicle) for a final concentration that equals the highest concentration of the drug tested, to a maximum concentration less than 0.1% v/v. 4 hours before culture end/SDS addition, 10 μL MTT (3-(4,5-Dimethyl-2-thiazolyl)-2,5-diphenyl-2H-tetrazolium bromide, Sigma-Aldrich) is added to wells containing the cells. At the end of culture, 100 μl 10% SDS is added and then the plate containing the cells is placed in a 37° C. cell culture incubator for 8 hours. The absorbance density of the supernatant is read on a 96-well microplate reader at wavelength 595 nm. The results of Caki-1 and MDRV are indicated in the table below along with preliminary results for further cancer cell lines (including, e.g., C4-2B, Abi-R, PC3, 22Rv1, DU145, H358, H446, BxPC3), and the corresponding curves are shown in FIG. 2A (Caki-1) and FIG. 2B (MDVR).

Experiment [2] concerns MDVR cells (Enzalutamide-resistant C4-2B prostate cancer cells). The experiment in a line: MTT cell viability / IC50 assay, MDVR. In kind it is cell-based. Particulars: Homo sapiens. Here is the method: as §1
Resistant prostate cancer cell lines MDVR and AbiR: MDVR cells are Enzalutamide-resistant cells, AbiR are Abiraterone acetate resistant cells, formed from parental C4-2B prostate cancer cells as follows. A cell assay is performed exposing cells cultured as described above to various drugs indicated below for 72 hours. Parental C4-2B cells are C4-2B non-resistant cells not previously exposed to cancer drugs. Drug-resistant C4-2B cells are created by prolonged exposure to the relevant drug, i.e. Enzalutamide for MDVR, and Abiraterone acetate for AbiR cells, at initially sub-lethal and gradually increasing concentrations until resistance is achieved.
Example 1: A cell assay is performed exposing cells cultured as described above to various drugs indicated below for 24 hours unless otherwise indicated. Each of the cell lines is treated either with a THAD (e.g. DZ-DHA-ether, MI-148-bis-DHA), or for comparison, with the DHA mono-ester “DZ-DHA”; alternatively/additionally, DZ1 and/or unconjugated DHA may serve as comparants. For each cell line, the IC50 is determined for each drug in concentrations from 0 to 100 μM. […] In the controls (not shown in the figures), the cells are exposed to DMSO (vehicle) for a final concentration that equals the highest concentration of the drug tested, to a maximum concentration less than 0.1% v/v. 4 hours before culture end/SDS addition, 10 μL MTT (3-(4,5-Dimethyl-2-thiazolyl)-2,5-diphenyl-2H-tetrazolium bromide, Sigma-Aldrich) is added to wells containing the cells. At the end of culture, 100 μl 10% SDS is added and then the plate containing the cells is placed in a 37° C. cell culture incubator for 8 hours. […]

Experiment [3] relates to C4-2B MDVR cells. The experiment in a line: Seahorse XF mitochondrial function (OCR/ECAR). It is filed as cell-based, human. The settings on record: 5 uM, over 12 hours. Here is the method: Example 5 C: To determine mitochondrial function of cancer cells (here C4-2B MDVR), the cells are treated with vehicle, DZ (5 uM), DHA (5 uM), and DZ-003 (5 uM) over 12 hours, and the oxygen consumption rate (OCR) from respiration and extracellular acidification rate (ECAR) from glycolysis of the live cells is determined in a metabolic chamber in a 24-well plate format using a Seahorse XF analyzer (Seahorse XFe24, Agilent, Calif.). Reagents (drugs/controls) are added to the wells just before start of the recording at time 0, and the effect of the drugs on the basal mitochondrial function is recorded by the analyzer for about 12 hours (720 minutes). All reagents used are Agilent reagents. Cells are seeded and cultured in Seahorse XF RPMI Medium, pH 7.4. The seeding rate is 8×10^5 for the cells to reach about 90% confluency within about 24 hours when the analysis is started. The protocol is essentially performed as per the standard protocol of the manufacturer, removing the medium, washing the cells once with XF Real-Time ATP Rate Assay Medium, then starting the measurement as per the instrument's pre-programming and subsequent real-time measurements of OCAR/ECAR. Preliminary experiments indicate that the THAD as described herein may have an increased effect compared to DZ3a.

In experiment [4] the test system is L858R/T790M EGFR versus wild-type EGFR. Particulars: inhibiting phosphorylation of EGFR in cell lines; cited from earlier work.
The mark [5] stands for this setting: Caki-1, 24 hours, relative IC50, read-out: IC50.
[6] abbreviates: Caki-1, unit inferred, read-out: IC50 (FIG. 2A description).
The mark [7] stands for this setting: ENZ-resistant C4-2B cells (MDVR), unit inferred, read-out: IC50 (FIG. 2B description).
[8] abbreviates: MDVR, 24 hours, relative IC50, read-out: IC50.

Like-named read-outs stand apart in the source and are kept apart here.

For `C[C@@H]1CC[C@H]2[C@@H](C)C(OC(=O)CCCCCN3/C(=C/C=C4\CCCC(/C=C/C5=[N+](CCCCCC(=O)OC6O[C@@H]7O[C@]8(C)CC[C@H]9[C@H](C)CC[C@@H]([C@H]6C)[C@@]79OO8)c6ccccc6C5(C)C)=C4Cl)C(C)(C)c4ccccc43)O[C@@H]3O[C@]4(C)CC[C@@H]1[C@]32OO4` (stereo partly shown) [MHI-148-bis-DHA], the IC50 is 0.71 µM in experiment [1] (setting [5]), 0.5 to 1.5 µM in experiment [1] (setting [6]), less than 1 µM in experiment [2] (setting [7]) and 0.86 µM in experiment [2] (setting [8]).
Take `CC1(C)C(/C=C/C2=C(Cl)C(=C/C=C3/N(CCCCCC(=O)O)c4ccccc4C3(C)C)/CCC2)=[N+](CCCCS(=O)(=O)[O-])c2ccccc21` [DZ1]: the “lowering of OCR (in words)” value in experiment [3] is recorded as “drop much less”.
Take `C=CC(=O)Nc1cc(Nc2nccc(-c3cn(C)c4ccccc34)n2)c(OC)cc1N(C)CCN(C)C` [Osimertinib]: the “potency against L858R/T790M relative to wild-type EGFR” value in experiment [4] was 100-200 times.
In the case of `C[C@@H]1CC[C@H]2[C@@H](C)C(OCCNC(=O)CCCCCN3/C(=C/C=C4\CCCC(/C=C/C5=[N+](CCCCS(=O)(=O)[O-])c6ccccc6C5(C)C)=C4Cl)C(C)(C)c4ccccc43)O[C@@H]3O[C@]4(C)CC[C@@H]1[C@]32OO4` (stereo partly shown) [DZ-DHA-ether], the IC50 in experiment [1] (setting [5]) was 1.42 µM; in experiment [1] (setting [6]), 0.5 to 1.5 µM; in experiment [2] (setting [7]) it was 3.47 µM; in experiment [2] (setting [8]) it was less than 3.47 µM.

The IC50 is the midpoint of a concentration-inhibition curve.
